According to paper PMC10946275, “New imidazole-2-thiones linked to acenaphythylenone as dual DNA intercalators and topoisomerase II inhibitors: structural optimization, docking, and apoptosis studies” (Journal of Enzyme Inhibition and Medicinal Chemistry, 2024):

Legend:
calf thymus DNA (ctDNA) = experiment: Terbium (Tb3+) luminescent biosensor detection of induced DNA damage; assay type: biochemical; conditions: for Tb luminescence enhancement (induced DNA damage): ctDNA incubated with compound 24 h, emission 545 nm, excitation 270 nm, compared with ctDNA-Tb mixture
Excerpt: Luminescence studies were accomplished in order to examine the possible DNA interaction with the studied compounds. Many luminescent biosensors are reported in literature for studying the possibility of DNA interaction with small molecules. […] Figure 5 presents a schematic diagram for the fluorometric detection of the induced DNA damage using Tb biosensor. Tb^3+ ion in the Tb luminescent probe is a trivalent lanthanide cation having low intrinsic luminescence in aqueous solutions[45]^,[46]. When Tb biosensor is added to a solution of DNA, it interacts differently with double-stranded DNA (dsDNA) and single-stranded DNA (ssDNA). With dsDNA, Tb^3+ ions are electrostatically attracted to the negatively charged phosphate backbone of the DNA. […] Therefore, the assessed compound damages dsDNA, ssDNA sites would be formed opposite to the site of damage and Tb^3+ would directly coordinate to the unpaired nucleobases in this single-stranded site.
For investigating the DNA interaction potential of the fourteen studied compounds, calf thymus DNA (ctDNA) was incubated with each compound for 24 h and then Tb was added to each mixture. Doxorubicin (DOX), a commonly used reference for DNA damaging agent was used and treated the same condition as the studied compounds. Tb luminescent intensity was measured at λmax = 545 nm after excitation at λmax = 270 nm.
Several concentrations within the range of 0.1 pM–200.0 μM of each of the studied compounds were incubated with ctDNA for 24 h. After which, Tb solution was added to aliquots of such mixtures and the luminescence intensity was recorded. Figure 7 presents Tb luminescence intensity as a function of the compound concentration for various compound/ctDNA/Tb mixtures. At minimum concentration of the studied compounds, minimum Tb luminescence was recorded. This reflects that the DNA molecule is undamaged, intact and acquiring a double helical structure. In this conformation, Tb ions are electrostatically attracted to the negatively charged DNA-phosphate backbone showing no increase in its luminescence. For solutions with higher concentrations of compounds 5b, 5h, and 5j (Figure 7a,c,and d). Tb fluorescence increased proportionally with the concentration until a concentration of 100 and 60 μM for compounds 5b, 5h, and 5j, respectively, where no further increase in the fluorescence occurs. This reflects that more DNA damage is induced with increasing concentrations of the three compounds. At concentrations higher than 100 and 60 μM for compounds 5b, 5h, and 5j, respectively, Tb luminescence remains constant at high fluorescence levels. […] Table 1 illustrates the analytical parameters elucidated as shown in Figure 7 for the quantification of the induced DNA damage by the studied compounds. The linearity parameters were calculated from the calibration curve in Figure 7-inset in order to obtain the minimum concentration of the studied compounds that would induce DNA damage.
Fluorescence measurements: Fluorescence spectra were measured between 290 and 800 nm with excitation at 270 nm of 100 µL solutions in a 1 cm path length Suprasil quartz fluorescence cuvette.
The PerkinElmer LS 55 fluorescence spectrophotometer was used to measure the fluorescence. After 24 h of incubation in buffer solution (40 mM Tris, 10 mM NaCl, pH 7.5), aliquots of each DNA-Compound mixture were combined with TbCl3 to confirm DNA damage. The final concentrations were […] ctDNA, 3 mM TbCl3, and 50 µM of each compound in buffer solution (40 mM Tris, 10 mM NaCl, pH 7.5). Calf thymus DNA (ctDNA) was combined with various quantities of each substance, ranging from 0.1 pM to 200 µM, for the experiment. The ultimate concentrations of […] ctDNA and 3 mM were achieved by adding Tb3 + solution to the ctDNA/compound combinations in buffer solution (40 mM Tris, 10 mM NaCl, pH 7.5) after 24 h of incubation.[44]
All chemicals, solvents, media and kits were purchased from commercial suppliers. […]

[1] = test system: hepatocellular carcinoma (HepG2); experiment: MTT cytotoxicity assay, HepG2; assay type: cell-based; conditions: Homo sapiens, 24 h treatment, read-out: IC50 against HepG2
Protocol: (§1) (Supplementary file). Compounds 5b and 5h were screened for their effects on the normal breast cell line MCF‐10a. Cells at a density of 1 × 104 were seeded in a 96‐well plate at 37 °C for 48 h under 5% CO2. After incubation, the cells were treated with different concentrations of the prepared molecules and incubated for 24 h. MTT dye was added after 24 h of drug treatment and incubated for 4 h at 37 °C. Also, 100 μl of dimethyl sulphoxide was added to each well to dissolve the purple formazan formed. The colour intensity of the formazan product, which represents the growth condition of the cells, was quantified using an enzyme‐linked immunosorbent assay (ELISA) plate reader at 570 nm. The experiments were carried out with at least three replicates and they were repeated at least three times.
(§2) All chemicals, solvents, media and kits were purchased from commercial suppliers.
(§3) In vitro anticancer screening […]
(§4) against three cancer cell lines namely: hepatocellular carcinoma (HepG2), human breast adenocarcinoma (MCF-7) and human colon cancer (HCT -116) utilizing MTT assay2. Compounds […]
(§5) 5b and 5h were screened for their effects on the normal breast cell line MCF‐10a. Cells at a density of 1 × 104 were seeded in a 96‐well plate at 37°C for 48 hr under 5% CO2. After incubation, the cells were treated with different concentrations of the prepared molecules and incubated for 24 hr.
(§6) MTT dye was added after 24 h of drug treatment and incubated for 4 h at 37°C. Also, 100 μl of dimethyl sulphoxide was added to each well to dissolve the purple formazan formed. The color intensity of the formazan product, which represents the growth condition of the cells, was quantified using an enzyme‐linked immunosorbent assay (ELISA) plate reader at 570 nm. The experiments were carried out with at least three replicates and they were repeated at least three […]
(§7) *: Statistically significant at p ≤ 0.05
(§8) Means with any Common letter (a-e) are not significant (OR Means with totally Different letters (a-e) are significant)

[2] = test system: human colon cancer (HCT-116); experiment: MTT cytotoxicity assay, HCT-116; assay type: cell-based; conditions: 24 h treatment, read-out: IC50 against HCT-116
Protocol: as §2, §3, §4, §5, §6, §7, §8

[3] = test system: human breast adenocarcinoma (MCF-7); experiment: MTT cytotoxicity assay, MCF-7; assay type: cell-based
Protocol: as §1, §2, §3, §4, §5, §6, §7, §8

[4] = test system: normal breast cell line (MCF-10a); experiment: MTT cytotoxicity assay, normal breast cell line MCF-10a; assay type: cell-based; conditions: Homo sapiens, 24 h treatment, read-out: IC50 against MCF-10a (normal cell)
Protocol: as §1, §5, §6, §7
Means with any Common letter (a-e) are not significant (OR Means with totally Different letters (a-e) are significant) Annexin V-FITC/PI Apoptosis Induction Analysis 3
Apoptosis detection in MCf-7 cells was assessed using BioVision® annexin‐V‐FITC apoptosis detection kit according to the manufacturer's instructions and quantified by flow cytometry at 488

MCF-7 cells [5] = experiment: Annexin V-FITC/PI apoptosis induction analysis (flow cytometry); assay type: cell-based, human; conditions: MCF-7, compound at its IC50, 24 h
MCF-7 cells [6] = experiment: Cell cycle analysis (DNA flow cytometry, PI)
Protocol: Cell cycle analysis: A FACS Calibur flow cytometer was used to measure the amount of DNA in the cell cycle analysis at 488 nm in accordance with the manufacturer’s recommendations. […] Cells were treated, rinsed twice, and then re-suspended in ice-cold PBS (phosphate buffer saline). After washing, 0.7 ml of 100% ethanol was added, and the mixture was then allowed to sit at 20 °C for 20 min. After washing, 500 μl of RNase was added, and then the mixture was incubated for 30 min. After that, PI was added, and the mixture was incubated without light for 30 min[22]^,[51].
3 Replica for each group Data was expressed using Mean ± SEM.
SEM: Standard error of mean
F: F for One way ANOVA test, Pairwise comparison bet. each 2 groups was done using Post Hoc Test (Tukey)
p: p value for comparing between the studied groups
p0: p value for comparing between Control and each other group
p1: p value for comparing between 5h and 5b
p2: p value for comparing between 5h and Dox
p3: p value for comparing between 5b and Dox
DNA content in the cell cycle analysis was quantified with the help ofa FACS Calibur flow
cytometer at 488 nm according to the manufacturer's instructions. Briefly, 2 × 10^5 cells/well were
cells were washed two times and resuspended in ice-cold phosphate buffer saline PBS. After
washing, 0.7 ml absolute ethanol was then added, followed by incubation at −20°C for 20 min.
After washing, 500 μl RNase was added, followed by incubation for 30 min. PI was then added,
followed by incubation for 30 min (light was avoided).

[7] = MCF-7, compound at its IC50, 24 h, listed as Dox

Cn1c(-c2ccccc2)cn(N=C2C(=O)c3cccc4cccc2c34)c1=S [5a, 2-((3-Methyl-4-phenyl-2-thioxo-2,3-dihydro-1H-imidazol-1-yl)imino)acenaphthylen-1(2H)-one]
melting point: 220 to 222 °C

O=C1C(=Nn2cc(-c3ccccc3)n(Cc3ccccc3)c2=S)c2cccc3cccc1c23 [5c, 2-((3-Benzyl-4-phenyl-2-thioxo-2,3-dihydro-1H-imidazol-1-yl)imino)-acenaphthylen-1(2H)-one]
melting point: 212 to 214 °C

O=C1C(=Nn2cc(-c3ccccc3)n(C3CCCCC3)c2=S)c2cccc3cccc1c23 [5d, 2-((3-Cyclohexyl-4-phenyl-2-thioxo-2,3-dihydro-1H-imidazol-1-yl)imino)-acenaphthylen-1(2H)-one]
melting point: 192 to 194 °C

COc1cccc(-n2c(-c3ccccc3)cn(N=C3C(=O)c4cccc5cccc3c45)c2=S)c1 [5e, 2-((3-(3-Methoxyphenyl)-4-phenyl-2-thioxo-2,3-dihydro-1H-imidazol-1-yl)imino)-acenaphthylen-1(2H)-one]
Tb luminescence enhancement (induced DNA damage) (calf thymus DNA (ctDNA)): significant enhancement
Concentration at which Tb luminescence stops increasing (maximum DNA damage) (calf thymus DNA (ctDNA); ctDNA, 24 h incubation): 80 µM
Concentration up to which no enhancement of Tb luminescence intensity occurs (calf thymus DNA (ctDNA); ctDNA, 24 h incubation): 20 µM
LOD (limit of detection; minimum concentration inducing detectable damage in ctDNA) (calf thymus DNA (ctDNA); ctDNA, 24 h incubation): 14.2 nM
LOQ (limit of quantitation) (calf thymus DNA (ctDNA); ctDNA, 24 h incubation): 46.9 nM
melting point: 212 to 214 °C

C=CCn1c(-c2ccccc2)cn(N=C2C(=O)c3cccc4cccc2c34)c1=S [5f, 2-((3-Allyl-4-phenyl-2-thioxo-2,3-dihydro-1H-imidazol-1-yl)imino)acenaphthylen-1(2H)-one]
Tb luminescence enhancement (induced DNA damage) (calf thymus DNA (ctDNA)): minimum enhancement
melting point: 212 to 214 °C

Cn1c(-c2ccc(Cl)cc2)cn(N=C2C(=O)c3cccc4cccc2c34)c1=S [5g, 2-((4–(4-Chlorophenyl)-3-methyl-2-thioxo-2,3-dihydro-1H-imidazol-1-yl)imino)-acenaphthylen-1(2H)-one]
melting point: 262 to 264 °C

O=C1C(=Nn2cc(-c3ccc(Cl)cc3)n(Cc3ccccc3)c2=S)c2cccc3cccc1c23 [5i, 2-((3-Benzyl-4-(4-chlorophenyl)-2-thioxo-2,3-dihydro-1H-imidazol-1-yl)imino)-acenaphthylen-1(2H)-one]
melting point: 260 to 262 °C

COc1cccc(-n2c(-c3ccc(Cl)cc3)cn(N=C3C(=O)c4cccc5cccc3c45)c2=S)c1 [5j, 2-((4-(4-Chlorophenyl)-3-(3-methoxyphenyl)-2-thioxo-2,3-dihydro-1H-imidazol-1-yl)-imino)acenaphthylen-1(2H)-one]
Tb luminescence enhancement (induced DNA damage) (calf thymus DNA (ctDNA)): significant enhancement
Concentration at which Tb luminescence stops increasing (maximum DNA damage) (calf thymus DNA (ctDNA); ctDNA, 24 h incubation): 60 µM
LOD (limit of detection; minimum concentration inducing detectable damage in ctDNA) (calf thymus DNA (ctDNA); ctDNA, 24 h incubation): 12.7 nM
LOQ (limit of quantitation) (calf thymus DNA (ctDNA); ctDNA, 24 h incubation): 42.4 nM
IC50 [1]: 7.9 µM
IC50 [2]: 10.8 µM
melting point: 282 to 284 °C

C=CCn1c(-c2ccc(Cl)cc2)cn(N=C2C(=O)c3cccc4cccc2c34)c1=S [5k, 2-((3-Allyl-4-(4-chlorophenyl)-2-thioxo-2,3-dihydro-1H-imidazol-1-yl)imino)-acenaphthylen-1(2H)-one]
Tb luminescence enhancement (induced DNA damage) (calf thymus DNA (ctDNA)): minimum enhancement
melting point: 262 to 264 °C

Cn1c(-c2ccc3ccccc3c2)cn(N=C2C(=O)c3cccc4cccc2c34)c1=S [5l, 2-((3-Methyl-4-(naphthalen-2-yl)-2-thioxo-2,3-dihydro-1H-imidazol-1-yl)imino)-acenaphthylen-1(2H)-one]
melting point: 240 to 242 °C

O=C1C(=Nn2cc(-c3ccc4ccccc4c3)n(Cc3ccccc3)c2=S)c2cccc3cccc1c23 [5m, 2-((3-Benzyl-4-(naphthalen-2-yl)-2-thioxo-2,3-dihydro-1H-imidazol-1-yl)imino)-acenaphthylen-1(2H)-one]
melting point: 332 to 334 °C

C=CCn1c(-c2ccc3ccccc3c2)cn(N=C2C(=O)c3cccc4cccc2c34)c1=S [5n, 2-((3-Allyl-4-(naphthalen-2-yl)-2-thioxo-2,3-dihydro-1H-imidazol-1-yl)imino)-acenaphthylen-1(2H)-one]
Tb luminescence enhancement (induced DNA damage) (calf thymus DNA (ctDNA)): minimum enhancement
melting point: 230 to 232 °C

COc1cccc2c1C(=O)c1c(O)c3c(c(O)c1C2=O)C[C@@](O)(C(=O)CO)C[C@@H]3O[C@H]1C[C@H](N)[C@H](O)[C@H](C)O1 [doxorubicin, reference compound]
Tb luminescence enhancement (induced DNA damage) (calf thymus DNA (ctDNA)): significant enhancement
LOD (limit of detection; minimum concentration inducing detectable damage in ctDNA) (calf thymus DNA (ctDNA); ctDNA, 24 h incubation): 4.09 nM
LOQ (limit of quantitation) (calf thymus DNA (ctDNA); ctDNA, 24 h incubation): 13.7 nM
IC50 ([3]; Homo sapiens, MCF7, MTT, 24 h treatment, read-out: IC50 against MCF-7): 8.24 µM
Selectivity Index (SI) ([3]; against MCF-7, relative to normal MCF-10a): 3.9
IC50 [4]: 32.4 µM
Apoptosis results: Early apoptosis (MCF-7 cells [5]): 8.3 ± 0.53%
Apoptosis results: Late apoptosis (MCF-7 cells [5]): 31.3 ± 0.62%
Apoptosis results: Total (MCF-7 cells [5]): 46.2 ± 0.53%
Apoptosis results: Early apoptosis (MCF-7 cells [5]; listed as Dox): 8.3 ± 0.53%
Apoptosis results: Late apoptosis (MCF-7 cells [5]; listed as Dox): 31.3 ± 0.62%
Apoptosis results: Necrosis (MCF-7 cells [5]; listed as Dox): 6.6 ± 0.61%
Phase of cell cycle arrest (MCF-7 cells [6]; MCF-7, compound at its IC50): G1/S phase
Cell cycle arrest (%) G0-G1 (MCF-7 cells [6]; [7]): 63.5 ± 0.51%
Cell cycle arrest (%) G2/M (MCF-7 cells [6]; [7]): 2.4 ± 0.73%
Cell cycle arrest (%) S (MCF-7 cells [6]; [7]): 34.2 ± 0.22%
